In experiment [1] the test system is T52 Hufos invasive tumour model. Nature of the experiment: T52 Hufos invasive tumour model, cell killing (H & E stained paraffin sections). The experiment is classed as cell-based, mouse. Here is the method: (§1) FIG. 10: Treatment of models with the anti-tumour drug cisplatin. H & E stained paraffin sections (×400 magnification) of SP-1 “papilloma” model (A, C and E) and T52-Hufos “invasive tumour” model (B, D and F). Shown are (A and B) untreated models (without cisplatin), (C and D) models treated with 50 μM cisplatin and (E and F) models treated with 500 μM cisplatin.
(§2) Cell models were harvested at appropriate time intervals and fixed overnight, at room temperature in a solution of buffered formalin. A small piece of the model was removed and embedded in paraffin wax. Sections were cut and mounted onto glass slides and stained with haematoxylin and eosin (H & E stain). The remainder of the model washed in PBS (phosphate buffered saline), permeabilised with Triton X-100 and stained with propidium iodide (PI). The washed models were stored thereafter in the dark at 4° C. and maintained their fluorescence for several weeks. Whole mounts of the PI stained models were analysed using fluorescent microscopy through coverslips applied directly to the surface of the tissue.

The test system of experiment [2] is SP-1 papilloma model. As to the kind of experiment: SP-1 papilloma model, cell killing (H & E stained paraffin sections). Format: cell-based, mouse. The settings on record: SP-1 model. Here is the method: as §1, §2
For experiment [3], the system named is SP-1 papilloma model. As to the kind of experiment: SP-1 papilloma three-dimensional model, area of cell cover (propidium iodide stained whole mounts). The experiment is classed as cell-based, mouse. The settings on record: SP-1 model. The procedure:
In summary the in vitro models were developed using contracted collagen gels which supported a layer of mouse tumour cells or corresponding “normal” epithelial cells. The collagen gel was comprised of type I collagen, isolated from rat tail tendon, contracted using primary mouse fibroblasts, which were isolated from the dermis of newborn (or embryonic) mice. The collagen gels contracted to a size approximately 1.5 cm in diameter and were seeded with a single cell suspension of mouse tumour or normal epithelial cells. The models were initially maintained as submerged cultures, which allowed the cells to adhere to the collagen gel and grow. The models may thereafter be raised to the air-liquid interface (semi-submerged culture) to promote cell differentiation and formation of tissue. […] Test agents can be added to the model system at different stages of tumour development. The models are directly imaged as whole mounts by fluorescent labelling of cells either with vital dyes or genetic markers or after fixation and staining.
In more detail, the collagen gel, described below, which supports the layer of epithelial cells (BalbMK (Weissman and Aaronson 1985), SP-1 (Strickland et al. 1988) or T52 Hufos (Greenhalgh and Yuspa 1988) in the prototype models), was contracted using dermal fibroblasts isolated from newborn mouse skin. The epidermis and dermis were separated from each other following an overnight digestion with trypsin at 4° C. The dermal tissue washed in sterile PBS, dissected-into very small pieces, suspended in 3-5 ml of MEM culture media and the slurry seeded into a 75 cm^2 plastic culture flask. This tissue was cultured without disturbance until the tissue pieces had adhered to the plastic flask. Fresh MEM (Minimum Essential Medium) supplemented with 10% foetal calf serum, 1% L-glutamine, 100 U/ml penicillin and 100 μg/ml streptomycin was added to the flask at this time. Fibroblast cell outgrowth from the dermal tissue explants was observed after several days. The excess tissue was removed and the fibroblast cells cultured to confluence. […]

For a further experiment, the system named is SP-1 cells. Nature of the experiment: Growth curves of SP-1 cells in monolayer culture. Format: cell-based. Particulars: Mus musculus, 240 h; SP-1 monolayer culture, 10 days in culture, 10^−7M RA; read-out: inhibition of the log phase of growth.
The subject of experiment [4] is T52 Hufos invasive tumour model. As to the kind of experiment: T52 Hufos invasive tumour three-dimensional model, area of cell cover. Format: cell-based, mouse. Particulars: 10^−7M RA, 10 day culture period (FIG. 7).
Source text: Hufos invasive tumour model over a 10 day culture period. In summary the in vitro models were developed using contracted collagen gels which supported a layer of mouse tumour cells or corresponding “normal” epithelial cells. The collagen gel was comprised of type I collagen, isolated from rat tail tendon, contracted using primary mouse fibroblasts, which were isolated from the dermis of newborn (or embryonic) mice. The collagen gels contracted to a size approximately 1.5 cm in diameter and were seeded with a single cell suspension of mouse tumour or normal epithelial cells. The models were initially maintained as submerged cultures, which allowed the cells to adhere to the collagen gel and grow. The models may thereafter be raised to the air-liquid interface (semi-submerged culture) to promote cell differentiation and formation of tissue. […] Test agents can be added to the model system at different stages of tumour development. The models are directly imaged as whole mounts by fluorescent labelling of cells either with vital dyes or genetic markers or after fixation and staining. In more detail, the collagen gel, described below, which supports the layer of epithelial cells (BalbMK (Weissman and Aaronson 1985), SP-1 (Strickland et al. 1988) or [MUT] Hufos (Greenhalgh and Yuspa 1988) in the prototype models), was contracted using dermal fibroblasts isolated from newborn mouse skin. […]
Setting [5] is: higher cisplatin concentration (500 μM, FIG. 10).
Setting [6] is: lower cisplatin concentration (50 μM, FIG. 10).

Take `N.N.[Cl][Pt][Cl]` [cisplatin]: the cell killing entry is given as “extensive cell death” in experiment [1] (setting [5]), “evidence of cell killing” in experiment [1] (setting [6]), “extensive cell death” with SP-1 papilloma model [2] (setting [5]) and “evidence of cell killing” in the experiment on SP-1 papilloma model [2] (setting [6]).

As to `CC1=C(/C=C/C(C)=C/C=C/C(C)=C/C(=O)O)C(C)(C)CCC1` [RA, All-trans-Retinoic acid], the “effect on area of cell cover” value is reported as “marked effect” with SP-1 papilloma model [3] (10^−6M RA (highest concentration studied), day 8 and day 10 (FIG. 6)); “modest effect with less cell cover than the corresponding untreated controls” in the experiment with SP-1 papilloma model [3] (10^−7M RA, vs untreated controls, time course to day 12 (FIG. 5)); “no effect” in experiment [4]. Moreover, in the experiment with SP-1 papilloma model [3] (RA at 10^−6M, 10^−7M and 10^−8M (FIG. 6)), the “degree of growth inhibition, concentration dependence” value was “concentration dependent”. In the experiment with SP-1 cells, the inhibition – broadly, the change of the read-out against control, counted positive when it falls – at 0.1 µM was found to be 46%.
